Measurements taken from patent publication EP0049683A2, “Imidazo-rifamycines, process for their preparation, pharmaceutical preparations containing them and their use” (CIBA-GEIGY AG, priority 1980, dated 1982).
≈ marks a conversion by molar mass, not a printed value.

Columns and labels:
Assay in all cases: Agar dilution MIC in DST agar (Ericsson and Sherris)
Format in all cases: cell-based
[1] = tested on: Pseudomonas aeruginosa K 799/61; conditions: for MIC Pseu. 799: in vitro, agar dilution, DST agar; for MIC: Pseudomonas aeruginosa, K799/61, read-out: MIC Pseu. 799
In short: (§1)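 Compounds are incorporated into agar at graded levels and the test strain is applied; the lowest concentration still suppressing its growth is recorded as the MIC in µg/ml.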

Proteus morganii 1518 = conditions: for MIC Prot. 1518: in vitro; for MIC: Morganella morganii, 1518, in vitro, read-out: MIC Prot. 1518
In short: as §1

[2] = tested on: Salmonella Typhimurium 277; conditions: in vitro; for MIC: Salmonella enterica, TYPHIMURIUM, read-out: MIC Salm. 277
In short: as §1

[3] = tested on: Staphylococcus aureus 2999; conditions: for MIC Staph. 2999: in vitro; for MIC: Staphylococcus aureus, 2999, in vitro, read-out: MIC Staph. 2999
In short: as §1

[4] = tested on: Staphylococcus aureus 10B; conditions: in vitro; for MIC: Staphylococcus aureus, 10B, read-out: MIC Staph. 10B
In short: as §1

Escherichia coli 2018 = conditions: for MIC Esch. 2018: in vitro; for MIC: Escherichia coli, 2018, in vitro, read-out: MIC Esch. 2018
In short: as §1

Proteus morganii 2359 = conditions: for MIC Prot. 2359: in vitro; for MIC: Morganella morganii, 2359, in vitro, read-out: MIC Prot. 2359
In short: as §1

Escherichia coli 205 = conditions: for MIC Esch. 205: in vitro; for MIC: Escherichia coli, 205, in vitro, read-out: MIC Esch. 205
In short: as §1

4-(3-Diethylaminocarbonyl-1-piperidyl)-imidazolo[4,5-c]-rifamycin SV [Verbindung 26]
MIC Pseu. 799 [1]: 16 µg/mL
MIC Prot. 1518 (Proteus morganii 1518): 16 µg/mL
MIC Salm. 277 [2]: 84 µg/mL
MIC Staph. 2999 [3]: 0.01 µg/mL
MIC Staph. 10B [4]: 0.05 µg/mL
MIC Esch. 2018 (Escherichia coli 2018): 32 µg/mL
MIC Prot. 2359 (Proteus morganii 2359): 16 µg/mL
MIC Esch. 205 (Escherichia coli 205): 16 µg/mL

C#CCN1CCN(c2nc3c([nH]2)c2c(O)c4c(O)c(C)c5c(c43)C(=O)[C@@](C)(O/C=C/[C@H](OC)[C@@H](C)[C@@H](OC(C)=O)[C@H](C)[C@H](O)[C@H](C)[C@@H](O)[C@@H](C)/C=C/C=C(/C)C(=O)N2)O5)CC1 [Verbindung 49, 4-(4-Propargylpiperazinyl)-imidazolo[4,5-c]rifamycin SV]
MIC [1]: 8 µg/mL (≈ 9.48 µM)
MIC (Proteus morganii 1518): 8 µg/mL (≈ 9.48 µM)
MIC [2]: 32 µg/mL (≈ 37.9 µM)
MIC [3]: 0.001 µg/mL (≈ 0.00118 µM)
MIC [4]: 0.001 µg/mL (≈ 0.00118 µM)
MIC (Escherichia coli 2018): 32 µg/mL (≈ 37.9 µM)
MIC (Proteus morganii 2359): 8 µg/mL (≈ 9.48 µM)
MIC (Escherichia coli 205): 8 µg/mL (≈ 9.48 µM)

4-[4-(1-Methyl-2-dimethylaminoethyl)-piperazinyl]-imidazolo[4,5-c]rifamycin SV [Verbindung 74]
MIC Pseu. 799 [1]: 128 µg/mL
MIC Prot. 1518 (Proteus morganii 1518): 32 µg/mL
MIC Salm. 277 [2]: 128 µg/mL
MIC Staph. 2999 [3]: 0.5 µg/mL
MIC Staph. 10B [4]: 0.5 µg/mL
MIC Esch. 2018 (Escherichia coli 2018): 32 µg/mL
MIC Prot. 2359 (Proteus morganii 2359): 32 µg/mL
MIC Esch. 205 (Escherichia coli 205): 128 µg/mL

CCN(CCO)c1nc2c([nH]1)c1c(O)c3c(O)c(C)c4c(c32)C(=O)[C@@](C)(O/C=C/[C@H](OC)[C@@H](C)[C@@H](OC(C)=O)[C@H](C)[C@H](O)[C@H](C)[C@@H](O)[C@@H](C)/C=C/C=C(/C)C(=O)N1)O4 [Verbindung 14, 4-[N-Ethyl-N-(2-hydroxyethyl)-amino]-imidazolo[4,5-c]rifamycin SV]
MIC [1]: 16 µg/mL (≈ 19.8 µM)
MIC (Proteus morganii 1518): 16 µg/mL (≈ 19.8 µM)
MIC [2]: 32 µg/mL (≈ 39.6 µM)
MIC [3]: 0.01 µg/mL (≈ 0.0124 µM)
MIC [4]: 0.05 µg/mL (≈ 0.0618 µM)
MIC (Escherichia coli 2018): 16 µg/mL (≈ 19.8 µM)
MIC (Proteus morganii 2359): 16 µg/mL (≈ 19.8 µM)
MIC (Escherichia coli 205): 8 µg/mL (≈ 9.89 µM)

4-(4-Isobutyl-perhydrct-1,4-diazepinyl)-imidazolo(4,5-c]-rifamycin SV [Verbindung 77]
MIC Pseu. 799 [1]: 8 µg/mL
MIC Prot. 1518 (Proteus morganii 1518): 8 µg/mL
MIC Salm. 277 [2]: 32 µg/mL
MIC Staph. 2999 [3]: 0.01 µg/mL
MIC Staph. 10B [4]: 0.01 µg/mL
MIC Esch. 2018 (Escherichia coli 2018): 8 µg/mL
MIC Prot. 2359 (Proteus morganii 2359): 8 µg/mL
MIC Esch. 205 (Escherichia coli 205): 8 µg/mL

C=CCCN1CCN(c2nc3c([nH]2)c2c(O)c4c(O)c(C)c5c(c43)C(=O)[C@@](C)(O/C=C/[C@H](OC)[C@@H](C)[C@@H](OC(C)=O)[C@H](C)[C@H](O)[C@H](C)[C@@H](O)[C@@H](C)/C=C/C=C(/C)C(=O)N2)O5)CC1 [Verbindung 45, 4-[4-(3-Butenyl)-piperazinyl]-imidazolo[4,5-c]rifamycin SV]
MIC [1]: 32 µg/mL (≈ 37.2 µM)
MIC (Proteus morganii 1518): 8 µg/mL (≈ 9.3 µM)
MIC [2]: 32 µg/mL (≈ 37.2 µM)
MIC [3]: 0.005 µg/mL (≈ 0.00581 µM)
MIC [4]: 0.01 µg/mL (≈ 0.0116 µM)
MIC (Escherichia coli 2018): 1 µg/mL (≈ 1.16 µM)
MIC (Proteus morganii 2359): 8 µg/mL (≈ 9.3 µM)
MIC (Escherichia coli 205): 8 µg/mL (≈ 9.3 µM)

CCCN(CCC)c1nc2c3c(O)c4c(O)c(C)c5c(c4c2[nH]1)C(=O)C(C)(OC=CC(OC)C(C)C(OC(C)=O)C(C)C(O)C(C)C(O)C(C)C=CC=C(C)C(=O)N3)O5 (stereo not drawn) [Verbindung 7, 4-Dipropylamino-imidazolo[4,5-c]rifamycin SV]
MIC [1]: 8 µg/mL (≈ 9.74 µM)
MIC (Proteus morganii 1518): 8 µg/mL (≈ 9.74 µM)
MIC [2]: 16 µg/mL (≈ 19.5 µM)
MIC [3]: 0.005 µg/mL (≈ 0.00609 µM)
MIC [4]: 0.005 µg/mL (≈ 0.00609 µM)
MIC (Escherichia coli 2018): 8 µg/mL (≈ 9.74 µM)
MIC (Proteus morganii 2359): 8 µg/mL (≈ 9.74 µM)
MIC (Escherichia coli 205): 8 µg/mL (≈ 9.74 µM)

CO[C@H]1/C=C/O[C@@]2(C)Oc3c(C)c(O)c4c(O)c(c5nc(N6CCN(Cc7ccccn7)CC6)[nH]c5c4c3C2=O)NC(=O)/C(C)=C\C=C\[C@H](C)[C@H](O)[C@@H](C)[C@@H](O)[C@@H](C)[C@H](OC(C)=O)[C@@H]1C [Verbindung 60, 4-[4-(2-Pyridylmethyl)-piperazinyl]-imidazolo[4,5-c]-rifamycin SV]
MIC [1]: 64 µg/mL (≈ 71.3 µM)
MIC (Proteus morganii 1518): 32 µg/mL (≈ 35.7 µM)
MIC [2]: 128 µg/mL (≈ 143 µM)
MIC [3]: 0.02 µg/mL (≈ 0.0223 µM)
MIC [4]: 0.02 µg/mL (≈ 0.0223 µM)
MIC (Escherichia coli 2018): 32 µg/mL (≈ 35.7 µM)
MIC (Proteus morganii 2359): 32 µg/mL (≈ 35.7 µM)
MIC (Escherichia coli 205): 32 µg/mL (≈ 35.7 µM)

COCCN(CCOC)c1nc2c([nH]1)c1c(O)c3c(O)c(C)c4c(c32)C(=O)[C@@](C)(O/C=C/[C@H](OC)[C@@H](C)[C@@H](OC(C)=O)[C@H](C)[C@H](O)[C@H](C)[C@@H](O)[C@@H](C)/C=C/C=C(/C)C(=O)N1)O4 [Verbindung 16, 4-[N-Di-(2-methoxyethyl)-amino]-imidazolo[4,5-c]rifamycin SV]
MIC [1]: 8 µg/mL (≈ 9.38 µM)
MIC (Proteus morganii 1518): 2 µg/mL (≈ 2.34 µM)
MIC [2]: 32 µg/mL (≈ 37.5 µM)
MIC [3]: 0.01 µg/mL (≈ 0.0117 µM)
MIC [4]: 0.01 µg/mL (≈ 0.0117 µM)
MIC (Escherichia coli 2018): 8 µg/mL (≈ 9.38 µM)
MIC (Proteus morganii 2359): 4 µg/mL (≈ 4.69 µM)
MIC (Escherichia coli 205): 8 µg/mL (≈ 9.38 µM)

CO[C@H]1/C=C/O[C@@]2(C)Oc3c(C)c(O)c4c(O)c(c5[nH]c(N6CCC(N(C)C)CC6)nc5c4c3C2=O)NC(=O)/C(C)=C\C=C\[C@H](C)[C@H](O)[C@@H](C)[C@@H](O)[C@@H](C)[C@H](OC(C)=O)[C@@H]1C [Verbindung 23, 4-(4-Dimethylamino-l-piperidyl)-imidazolo[4,5-c]rifamycin SV]
MIC [1]: 16 µg/mL (≈ 18.9 µM)
MIC (Proteus morganii 1518): 16 µg/mL (≈ 18.9 µM)
MIC [2]: 16 µg/mL (≈ 18.9 µM)
MIC [3]: 0.1 µg/mL (≈ 0.118 µM)
MIC [4]: 0.1 µg/mL (≈ 0.118 µM)
MIC (Escherichia coli 2018): 8 µg/mL (≈ 9.43 µM)
MIC (Proteus morganii 2359): 16 µg/mL (≈ 18.9 µM)
MIC (Escherichia coli 205): 16 µg/mL (≈ 18.9 µM)

CO[C@H]1/C=C/O[C@@]2(C)Oc3c(C)c(O)c4c(O)c(c5nc(N6CCN(CC7CCCC7)CC6)[nH]c5c4c3C2=O)NC(=O)/C(C)=C\C=C\[C@H](C)[C@H](O)[C@@H](C)[C@@H](O)[C@@H](C)[C@H](OC(C)=O)[C@@H]1C [Verbindung 55, 4-(4-Cyclopentylmethylpiperazinyl)-imidazolo[4,5-c]-rifamycin SV]
MIC [1]: 32 µg/mL (≈ 36 µM)
MIC (Proteus morganii 1518): 2 µg/mL (≈ 2.25 µM)
MIC [2]: 32 µg/mL (≈ 36 µM)
MIC [3]: 0.001 µg/mL (≈ 0.00113 µM)
MIC [4]: 0.01 µg/mL (≈ 0.0113 µM)
MIC (Escherichia coli 2018): 1 µg/mL (≈ 1.13 µM)
MIC (Proteus morganii 2359): 2 µg/mL (≈ 2.25 µM)
MIC (Escherichia coli 205): 8 µg/mL (≈ 9.01 µM)

CO[C@H]1/C=C/O[C@@]2(C)Oc3c(C)c(O)c4c(O)c(c5[nH]c(N6CCCCC6)nc5c4c3C2=O)NC(=O)/C(C)=C\C=C\[C@H](C)[C@H](O)[C@@H](C)[C@@H](O)[C@@H](C)[C@H](OC(C)=O)[C@@H]1C [Verbindung 21, 4-Piperidino-imidazolo[4,5-c]rifamycin SV]
MIC [1]: 16 µg/mL (≈ 19.9 µM)
MIC (Proteus morganii 1518): 4 µg/mL (≈ 4.97 µM)
MIC [2]: 16 µg/mL (≈ 19.9 µM)
MIC [3]: 0.005 µg/mL (≈ 0.00621 µM)
MIC [4]: 0.005 µg/mL (≈ 0.00621 µM)
MIC (Escherichia coli 2018): 4 µg/mL (≈ 4.97 µM)
MIC (Proteus morganii 2359): 4 µg/mL (≈ 4.97 µM)
MIC (Escherichia coli 205): 4 µg/mL (≈ 4.97 µM)

4-(N-Benzyl-N-methylamino)-imidazolo[4,5-c]rifamycin SV [Verbindung 12]
MIC Pseu. 799 [1]: 8 µg/mL
MIC Prot. 1518 (Proteus morganii 1518): 1 µg/mL
MIC Salm. 277 [2]: 32 µg/mL
MIC Staph. 2999 [3]: 0.001 µg/mL
MIC Staph. 10B [4]: 0.001 µg/mL
MIC Esch. 2018 (Escherichia coli 2018): 8 µg/mL
MIC Prot. 2359 (Proteus morganii 2359): 8 µg/mL
MIC Esch. 205 (Escherichia coli 205): 8 µg/mL

4-[4-(2,2-Diethoxyethyl)-piperazinyl]-imidazolo[4,5-c]-rifamycin SV [Verbindung 66]
MIC Pseu. 799 [1]: 32 µg/mL
MIC Prot. 1518 (Proteus morganii 1518): 16 µg/mL
MIC Salm. 277 [2]: 128 µg/mL
MIC Staph. 2999 [3]: 0.01 µg/mL
MIC Staph. 10B [4]: 0.01 µg/mL
MIC Esch. 2018 (Escherichia coli 2018): 16 µg/mL
MIC Prot. 2359 (Proteus morganii 2359): 16 µg/mL
MIC Esch. 205 (Escherichia coli 205): 16 µg/mL

CO[C@H]1/C=C/O[C@@]2(C)Oc3c(C)c(O)c4c(O)c(c5[nH]c(N6CCN(CC(C)=C(C)C)CC6)nc5c4c3C2=O)NC(=O)/C(C)=C\C=C\[C@H](C)[C@H](O)[C@@H](C)[C@@H](O)[C@@H](C)[C@H](OC(C)=O)[C@@H]1C [Verbindung 48]
MIC [1]: 32 µg/mL (≈ 36 µM)
MIC (Proteus morganii 1518): 8 µg/mL (≈ 9.01 µM)
MIC [2]: 32 µg/mL (≈ 36 µM)
MIC [3]: 0.001 µg/mL (≈ 0.00113 µM)
MIC [4]: 0.001 µg/mL (≈ 0.00113 µM)
MIC (Escherichia coli 2018): 8 µg/mL (≈ 9.01 µM)
MIC (Proteus morganii 2359): 8 µg/mL (≈ 9.01 µM)
MIC (Escherichia coli 205): 32 µg/mL (≈ 36 µM)
